Measured values: patent publication US20050032042A1, “Anti-retroviral analysis by mass spectrometry” (priority 2003, published 2005)

Legend:
[1] = in vivo; cited from earlier work
[2] = in vivo; cited from earlier work; remark: listed apart in the source
[3] = cited from earlier work
[4] = for Saliva (s) vs Total Plasma (tp) regression equation / r, saliva vs total plasma / Free Plasma (f) vs Total Plasma (tp) regression equation / r, free plasma vs total plasma: human; for Saliva (s) vs Total Plasma (tp) regression equation / r, saliva vs total plasma / correlation of free drug or saliva drug concentration with total drug concentration (in words): in vivo
Procedure: Protein binding and free drug measurement: An Institutional Review Board (IRB) approved protocol was developed for the assessment of free drug concentrations by measuring both the saliva and free drug in plasma utilizing the tandem mass spectrometric methods for plasma or serum measurement. […] A bigger sample is injected for the free drug measurement (50 uL vs 10 uL for plasma/serum.). Free drug concentrations can be measured by using either equilibrium dialysis or, more commonly, devices with molecular cutoff filters such as the Amicon Centrifree micropartition system (Millipore Corporation, Bedford, Mass.) or the Worthington Diagnostics “ultrafree” system (Worthington, Jacksonville, Fla.). Plasma ultrafiltrate is obtained by centrifuging 1 mL of plasma in Amicon system and then deproteinising as described for serum/plasma previously (15, 40).

| SMILES | Trough Concentration [1] | C max. [2] | C min. [2] | t ½ [2] | Protein Bindings % [3] | Vd [2] | Saliva (s) vs Total Plasma (tp) regression equation [4] | r, saliva vs total plasma [4] | correlation of free drug or saliva drug concentration with total drug concentration (in words) [4] | Free Plasma (f) vs Total Plasma (tp) regression equation [4] | r, free plasma vs total plasma [4] |
| --- | --- | --- | --- | --- | --- | --- | --- | --- | --- | --- | --- |
| CC(C)Nc1cccnc1N1CCN(C(=O)c2cc3cc(NS(C)(=O)=O)ccc3[nH]2)CC1 [Delavirdine] | 3000 to 8000 ng/mL | 16000 ng/mL | 3000 ng/mL | 6 h | 99% | – | – | – | – | – | – |
| CC(C)(C)NC(=O)[C@@H]1C[C@@H]2CCCC[C@@H]2CN1C[C@@H](O)[C@H](Cc1ccccc1)NC(=O)[C@H](CC(N)=O)NC(=O)c1ccc2ccccc2n1 [Saquinavir] | 15 to 40 ng/mL | 500 ng/mL | – | 12 h | – | 10 L/kg | – | – | – | – | – |
| Cc1c(O)cccc1C(=O)N[C@@H](CSc1ccccc1)[C@H](O)CN1C[C@H]2CCCC[C@H]2C[C@H]1C(=O)NC(C)(C)C [Nelfinavir] | 1000 ng/mL | 4000 ng/mL | 1000 ng/mL | 5 h | 98% | 4 L/kg | s = 0.0026tp + 78 | 0.047 | not | – | – |
| O=c1[nH]cnc2c1ncn2[C@H]1CC[C@@H](CO)O1 [Didanosine] | 100 to 300 ng/mL | 24000 ng/mL | – | – | – | 0.8 L/kg | s = 0.29tp + 20 | 0.912 | good correlations | f = 0.19tp + 47 | 0.749 |
| CC(C)(C)NC(=O)[C@@H]1CN(Cc2cccnc2)CCN1C[C@@H](O)C[C@@H](Cc1ccccc1)C(=O)N[C@H]1c2ccccc2C[C@H]1O [Indinavir] | – | 10000 ng/mL | – | – | – | – | – | – | – | – | – |
| Nc1ccn([C@H]2CC[C@@H](CO)O2)c(=O)n1 [Zalcitabine] | Undetectable | <25 ng/mL | undetectable | 2.0 h | <5% | 0.5 L/kg | – | – | – | – | – |
| Cc1cn([C@H]2C=C[C@@H](CO)O2)c(=O)[nH]c1=O [Stavudine] | 20 ng/mL | 2000 ng/mL | 20 ng/mL | 1.1 h | – | 1.0 L/kg | – | 0.909 | good correlations | f = 0.66tp − 4 | 0.924 |
| Nc1ccn([C@@H]2CS[C@H](CO)O2)c(=O)n1 [Lamivudine] | 100 to 1000 ng/mL | 1800 ng/mL | – | – | – | – | – | – | – | – | – |
| Cc1ccnc2c1NC(=O)c1cccnc1N2C1CC1 [Nevirapine] | 3000 ng/mL | 20000 ng/mL | 3000 ng/mL | 30 h | 60% | 1.2 L/kg | – | 0.901 | good correlations | f = 0.36tp + 483 | 0.909 |
| CC(C)c1nc(CN(C)C(=O)N[C@H](C(=O)N[C@@H](Cc2ccccc2)C[C@H](O)[C@H](Cc2ccccc2)NC(=O)OCc2cncs2)C(C)C)cs1 [Ritonavir] | 1000 ng/mL | 14000 ng/mL | 1000 ng/mL | 4 h | – | 0.4 L/kg | s = 0.043tp + 109 | 0.991 | good correlations | – | – |
| Cc1cn([C@H]2C[C@H](N=[N+]=[N-])[C@@H](CO)O2)c(=O)[nH]c1=O [Zidovudine] | <20 ng/mL | 1800 ng/mL | <20 ng/mL | 1.2 h | <5% | 1.4 L/kg | – | – | good correlations | f = 0.14tp + 27 | 0.907 |
| Cc1cccc(C)c1OCC(=O)N[C@@H](Cc1ccccc1)[C@@H](O)C[C@H](Cc1ccccc1)NC(=O)[C@H](C(C)C)N1CCCNC1=O [Lopinavir] | – | – | – | – | – | – | s = 0.05tp + 194 | 0.777 | good correlations | – | – |
